Data: patent publication US8314150B2, “Kinase protein binding inhibitors” (priority 2008, dated 2012)

What was measured:
[1] = system: resistant breast cancer cells with overexpressed Src and activated FAK; test: Cell viability in resistant breast cancer cells; type: cell-based; conditions: not shown
Method: (§1) Cell Viability Assay—The Cells were treated with peptides for 24 hours at different peptide concentrations. The 3-(4,5-dimethylthiazol-2-yl)-5-(3-carboxymethoxyphenyl)-2-(4-sulfophenyl)-2H-tetrazolium compound from Promega Viability kit (Madison, Ill.) was added, and the cells were incubated at 37° C. for 1-2 hours. The optical density on 96-plate was analyzed with a microplate reader at 490 nm to determine cell viability. In addition, cells were stained with trypan blue after 24 hours of treatment with Y15 and the percent of cells that stained positive were determined with a hemacytometer. […] Then 2% SDS was added to the dried plated and OD at 590 nm was measured for detecting cell adhesion. […] Protein concentrations were determined using a Bio-Rad Kit. The boiled samples were loaded on Ready SDS-10% PAGE gels (Bio Rad, Inc) and used for Western blot analysis with the protein-specific antibody. […] Detachment Assay—Cells were plated with and without inhibitors for 24 hours, and detached and attached cells were counted in a hemocytometer. We calculated the percent of detachment by dividing the number of detached cells by the total number of cells. The percent of detached cells was calculated in three independent experiments. […] For each experiment 300 cells per treatment were counted. […]

[2] = system: BT474 breast cancer cells; test: MTT cell viability assay, BT474; type: cell-based; conditions: 24 hours
Method: as §1

VEGFR-3 phosphorylation = test: Phosphorylation of VEGFR-3 in cells; type: cell-based; conditions: not shown
Method: as §1

c-Src phosphorylation = test: Phosphorylation of c-Src in cells; type: cell-based; conditions: not shown
Method: as §1

BT474 cells = test: Apoptosis assay (Hoechst staining), BT474; type: cell-based
Method: (§2) Cell Viability Assay—The Cells were treated with peptides for 24 hours at different peptide concentrations. The 3-(4,5-dimethylthiazol-2-yl)-5-(3-carboxymethoxyphenyl)-2-(4-sulfophenyl)-2H-tetrazolium compound from Promega Viability kit (Madison, Ill.) was added, and the cells were incubated at 37° C. for 1-2 hours. The optical density on 96-plate was analyzed with a microplate reader at 490 nm to determine cell viability. In addition, cells were stained with trypan blue after 24 hours of treatment with Y15 and the percent of cells that stained positive were determined with a hemacytometer. Cell adhesion assay—The poly-L-Lysine or Collagen (5 μg/ml) coated 96-well plates were blocked with the blocking buffer (medium with 0.5% BSA) for 1 hour at 37 C. The cells were pre-treated with drugs for 3 hours and plated for adhesion at 4×10^5 cells. Cells were incubated at 37 C for 1 hour, fixed in 3.7% formaldehyde, washed in 0.1% BSA in PBS and stained with crystal violet (5 mg/ml in 2% ethanol) for 10 minutes. Then 2% SDS was added to the dried plated and OD at 590 nm was measured for detecting cell adhesion. […] Protein concentrations were determined using a Bio-Rad Kit. The boiled samples were loaded on Ready SDS-10% PAGE gels (Bio Rad, Inc) and used for Western blot analysis with the protein-specific antibody. […] Detachment Assay—Cells were plated with and without inhibitors for 24 hours, and detached and attached cells were counted in a hemocytometer. We calculated the percent of detachment by dividing the number of detached cells by the total number of cells. The percent of detached cells was calculated in three independent experiments. […] The percent of apoptotic cells was calculated as a ratio of apoptotic detached cells divided by the total number of cells in three independent experiments in several fields with the fluorescent microscope. For each experiment 300 cells per treatment were counted. In vitro Kinase Assay—10 μCi of [γ-^32P]-ATP in a kinase buffer (20 mM HEPES, pH 7.4, 5 mM MgCl2, 5 mM MnCl2, 0.1 mM Na3VO4 with 0.1 μg of purified FAK protein were incubated in a kinase buffer with 10 μCi of [γ-^32P]-ATP. The kinase reaction was performed for 5 minutes at room temperature and stopped by addition of 2× Laemmli buffer. Proteins were separated on a Ready SDS-10% PAGE gel, and the phosphorylated enolase was visualized by autoradiography. KinaseProfiler screening—Kinase specificity screening was performed with KinaseProfiler™ Service (Millipore) available on http://www.millipore.com/drugdiscovery/dd3/KinaseProfiler. […]

[3] = system: BT474 breast cancer cells; test: BT474 subcutaneous tumor growth in nude mice; type: in vivo
Method: as §2

caspase-3 = test: Caspase-3 immunohistochemistry of Panc-1 tumors; type: in vivo, mice; conditions: 30 mg/kg, no significant increase
Method: as §1

For Cl.Cl.Cl.Cl.Nc1cc(N)c(N)cc1N [Y15, 1,2,4,5-benzenetetraamine tetrahydrochloride], the cell viability [1] was “effectively blocked cell viability”, the “dose at which viability started to decrease” value [2] was 10 µM and the “doses at which viability was significantly blocked” value [2] was 50 to 100 µM. For the same molecule, the “phosphorylation of VEGFR-3” value (VEGFR-3 phosphorylation) was “did not inhibit”, the “phosphorylation of c-Src” value (c-Src phosphorylation) was “did not inhibit” and the “apoptotic nuclei (Hoechst)” value (BT474 cells; 200 μM) was “No apoptotic nuclei were detected”. The apoptotic levels (BT474 cells; 50-100 μM) was “less than 6%”, the tumor growth ([3]; 30 mg/kg IP, 5 days/week) was “significantly blocked tumor growth” and the “inhibition of tumor growth” value ([3]; 30 mg/kg, alone) was > 74%. The tumor volume ([3]; 30 mg/kg, day 23, vs untreated) was “significantly less than in untreated samples”, the tumor weight ([3]; 30 mg/kg, day 23, vs untreated mice) was “significantly reduced tumor weight” and the “apoptotic cells in tumors (caspase-3 staining)” value (caspase-3) was 6%.
